The source of these data is patent US8841325B2, “Immunomodulatory compounds for the restoration of vitamin D sensitivity in vitamin D resistant tumor cells” (Celgene Corporation, priority 2009, dated 2014).

pIC50: −log10 of the molar value.

Format in all cases: cell-based
One assay concerns HBL-100 cells. Put plainly: BCL-2 expression by immunoblotting, HBL-100. To be noted: 1 μM lenalidomide and 100 nM 1,25-D3 alone or in combination, 6 days, FIG. 15. As to the method: It has been shown in this paper that BCL-2 inhibition of expression seems to be a key event for the restoration of a sensitive vitamin D sensitive phenotype in MDA-MB-231. […] Cells were also treated with 0.1% DMSO as a control. Whole cells extracts were prepared and analysed by immuoblotting BCL-2 antibody. β-actin was used as a loading control.
More particularly, FIG. 15 illustrates the effects of co-treatment lenalidomide/1, 25-D3 on BCL-2 expression in MCF-7VDR and HBL-100 cells. MCF-7/VDR and HBL-100 cells were treated for up to 6 days with 1 μM lenalidomide and 100 nM 1, 25-D3 alone or in combination. Cells were also treated with 0.1% DMSO a control. Whole proteins were extracted and probes for BCL-2. β-actin was used as a loading control. Representative blots for the three experiments are shown.

The subject of a further assay is MDA-MB-231 cells. Put plainly: PARP cleavage assay (Western blot). As to the method:
Cells were plated in 75 cm^2 flasks and cultured for 6 days with 1 μl/mL DMSO (control) or 1 μM 1-oxo-2-(2,6-dioxopiperidin-3-yl)-4-aminoisoindoline and 100 nM 1,25 D3, each alone or in combination. For each time point, medium was removed and cells were washed with ice-cold PBS. Cells were then lysed with RIPA buffer (1% NP40, 0.5% sodium deoxycholate, 0.1% SDS, PBS) and the lysate was centrifuged at 13000 rpm for 20 minutes at 4° C. The supernatant was collected and an aliquot taken for measuring protein concentration. The protein estimation was determined for each lysate using the Bio-Rad DC Protein Assay Kit according to the manufacturer's instructions. The protein extract was mixed with SDS (1/4), sonicated 10 seconds, and protein concentration was determined by Bradford assay.
SDS-polyacrylamide gel electrophoresis (SDS-PAGE) was run on a Mini Trans-Blot Module apparatus (Bio-Rad). The percentage of polyacrylamide/bis-acrylamide in the resolving gel in this experiment was 12% v/v. The following reagents were used for stacking gel: 0.67 mL 30% acrylamide/bis-acrylamide; 2.7 mL H2O; 0.5 mL 1M trizma; 0.01 mL 10% ammonium persulfate; and 0.04 mL SDS. The following reagents were used for resolving gel: 3.3 mL 30% acrylamide/bis-acrylamide; 4 mL H2O; 2.5 mL 1M trizma; 0.1 mL 10% ammonium persulfate; and 0.1 mL 10% SDS.
Once the resolving gel was prepared, polymerization was initiated by addition of 10 μl N′,N′,N′,N′-teramethylethylene-diamine (TEMED). Lysates were boiled for 5 minutes and chilled on ice then loaded into the stacking gel, with volumes adjusted so that equal amounts of protein were loaded. Rainbow colored markers (Sigma Aldrich) were also added in one well to monitor the electrophoretic solution. Electrophoresis was performed at 40 mA constant current for 1 to 2 hours in running buffer (10×25 mM trizma, 192 mM glycine, 0.1% SDS).
For western blotting, the proteins were transferred from the gel onto Hybond C-Super nitrocellulose membrane (Amersham International, U.K.) in a Mini Trans-Blot apparatus (Bio-Rad) according to the manufacturer's instructions. Transfer was performed at 100 V for 1.5 to 2 hours in transfer buffer (25 mM Tris base, 192 mM glycine, 20% methanol, pH 8.2). The nitrocellulose was blocked after 1 hour with milk solution (PBS 1×, 1% Tween 20, 1% Triton X100, 5% fat-free milk). The membrane was then stained for 1 hour with the primary antibodies Total-PARP and Cleaved-PARP in the milk solution. The membrane was washed with milk solution and stained with secondary antibody (anti-rabbit from Sigma Aldrich) for 1 hour. […] The membrane was then wrapper in cling-film and placed in a cassette and, in the dark, pieces of autography film (GRI) were placed over it and left for the desired time before being put through a developer.
Cells were lysed in RIPA buffer containing 1% NP40, 0.5% sodium deoxycholate, 0.1% SDS, PBS. Equal amounts of protein (20 μg per lane) were subjected to SDS-PAGE and transferred to nitrocellulose membranes. Membranes were blocked with 5% milk in 0.05% Tween-20/TBS and then incubated with the first antibody in 0.5% milk overnight. Membranes were then incubated with the secondary anti-mouse or anti-rabbit horseradish peroxidase conjugated antibody. Bands were visualised using the enhanced chemiluminescence Western blotting detection system (ECL, Amersham, N.J., USA). Densitometric analysis was performed using Adobe Photoshop CS2. Anti-cleaved PARP and anti-total PARP antibodies (New England biolab, Cell Signalling), were used at a dilution of 1/1000 and anti-rabbit (AbCam, UK), at a dilution of 1/5000.
Cells were also treated with 0.1% DMSO as a control. […] Cells treated with 0.1% DMSO were used as a control (day 0). Cell lysates were probed for cleaved-PARP(C-PARP) and total PARP (T-PARP). Data shown are representative of three identical experiments.

Another assay deals with MCF-12A cells. Put plainly: Cell growth by Sulphorhodamine B (SRB) assay, MCF-12A. The following applies: for effect on cell growth: single agent, Thalidomide 0.01-100 μM, CC-4047 and lenalidomide 0.001-10 μM, FIG. 6B. The protocol:
Cells were seeded in 24 wells plates at a density of 10^4 cells per well and allowed to adhere for 24 hours. […] Each treatment was carried out for up to 7 days, but renewed every 2 days. Cell growth was then determined by Sulphorhodamine B (SRB) assay, measuring absorbance at 550 nm.
After 6 days treatment, cells were seeded in 24 well plates at a density of 1×10^4 cells/well. After 24 h cells were treated with reagents or vehicle for up to six days. Cells were treated for up to 6 days with log doses of Thalidomide (0.1 μM up to 100 μM), pomalidomide and lenalidomide (0 μM up to 10 μM). At the end of each experiment, cells were fixed to the bottom of the well by addition of ice-cold 50% w/v trichloroacetic acid (TCA) to give a final concentration of 10% TCA. Plates were incubated at 4° C. for 30 minutes and then washed with distilled water. Plates were allowed to air-dry at room temperature before staining with 0.4% w/v SRB in 1% v/v acetic acid and incubated for 15 minutes on a shaker. The plates were then extensively washed with 1% acetic acid to remove unbound dye and were again allowed to air-dry at room temperature. Incorporated dye was solubilised with 200 μl […] Tris base. 100 μl aliquots were transferred to a 96 well plate and absorbance at 550 nm was determined

The mark [1] stands for this setting: single agent: 1 μM lenalidomide or 100 nM 1,25 D3 alone, up to 6 days.

For `C=C1/C(=C\C=C2/CCC[C@]3(C)[C@@H]([C@H](C)CCCC(C)(C)O)CC[C@@H]23)C[C@@H](O)C[C@@H]1O` [1,25-D3, 1α,25-dihydroxyvitamin D3], the “effects on BCL-2 expression” value in the assay on HBL-100 cells was “no effects”. Further, the PARP cleavage entry is “no effect” in the assay with MDA-MB-231 cells (setting [1]) and “no PARP cleavage” with MDA-MB-231 cells (single agent: 1 μM lenalidomide or 100 nM 1,25 D3 alone, up to 6 days, listed as vitamin D). In the assay on MCF-12A cells (100 nM 1,25-D3 alone, up to 6 days, FIG. 7B), the inhibition of growth was found to be 55%. Besides, the pIC50 with MCF-12A cells (1,25 D3 alone, read-out: dose giving IC50 inhibition) was 7.00.

`Nc1cccc2c1CN(C1CCC(=O)NC1=O)C2=O` (stereo not drawn) [Lenalidomide, 1-oxo-2-(2,6-dioxopiperidin-3-yl)-4-aminoisoindoline]: the “effects on BCL-2 expression” value with HBL-100 cells is reported as “no effects”. In addition, the PARP cleavage entry with MDA-MB-231 cells (1 μM lenalidomide in combination with 100 nM 1,25 D3, up to 6 days) is reported as “starts to be cleaved after 2 days of treatment”; in the assay on MDA-MB-231 cells (1 μM lenalidomide in combination with 100 nM 1,25 D3, up to 6 days, listed as 1-oxo-2-(2,6-dioxopiperidin-3-yl)-4-aminoisoindoline) it was “significant level of cleaved PARP”; with MDA-MB-231 cells (setting [1]), “no effect”; in the assay on MDA-MB-231 cells (single agent: 1 μM lenalidomide or 100 nM 1,25 D3 alone, up to 6 days, listed as 1-oxo-2-(2,6-dioxopiperidin-3-yl)-4-aminoisoindoline), “no PARP cleavage”. Also, the “effect on cell growth” value is reported as “do not Affect” with MCF-12A cells (up to 6 days) and “no effect” in the assay with MCF-12A cells (up to 6 days, listed as lenalidomide).
